Laboratory results from patent US20100298141A1, “SUBSTITUTED PYRIDINE N-OXIDE HERBICIDES” (E. I. DU PONT DE NEMOURS AND COMPANY, priority 2007, published 2010).

Experiments:
Test in all cases: Test F preemergence test
bermudagrass = assay type: in vivo, Cynodon dactylon; details: scale 0 to 100
Procedure, shortened: (§1)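 Greenhouse screen: test chemical in surfactant-containing non-phytotoxic solvent applied preemergence to sown seeds or postemergence to sugarcane plants; after 14 to 21 days each species scored visually versus controls.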

Surinam grass = assay type: in vivo, Brachiaria decumbens; details: scale 0 to 100
Procedure, shortened: as §1

large crabgrass = assay type: in vivo, Digitaria sanguinalis; details: scale 0 to 100
Procedure, shortened: as §1

goosegrass = assay type: in vivo, Eleusine indica; details: scale 0 to 100
Procedure, shortened: as §1

johnsongrass = assay type: in vivo, Sorghum halepense; details: scale 0 to 100
Procedure, shortened: as §1

kochia = assay type: in vivo, Kochia scoparia; details: scale 0 to 100
Procedure, shortened: as §1

pitted morningglory = assay type: in vivo, Ipomoea lacunosa; details: scale 0 to 100
Procedure, shortened: as §1

common ragweed = assay type: in vivo, Ambrosia elation; details: scale 0 to 100
Procedure, shortened: as §1

mustard = assay type: in vivo, Brassica nigra; details: scale 0 to 100
Procedure, shortened: as §1

guineagrass = assay type: in vivo, Panicum maximum; details: scale 0 to 100
Procedure, shortened: as §1

dallisgrass = assay type: in vivo, Paspalum dilatatum; details: scale 0 to 100
Procedure, shortened: as §1

barnyardgrass = assay type: in vivo, Echinochloa crus-galli
Procedure, shortened: as §1

prickly sida = assay type: in vivo, Sida spinosa; details: scale 0 to 100
Procedure, shortened: as §1

Italian ryegrass = assay type: in vivo, Lolium multiflorum; details: scale 0 to 100
Procedure, shortened: as §1

common purslane = assay type: in vivo, Portulaca oleracea; details: scale 0 to 100
Procedure, shortened: as §1

broadleaf signalgrass = assay type: in vivo, Brachiaria platyphylla; details: scale 0 to 100
Procedure, shortened: as §1

common groundsel = assay type: in vivo, Senecio vulgaris; details: 125 g ai/ha, preemergence, scale 0 to 100
Procedure, shortened: as §1

Virginia dayflower = assay type: in vivo, Commelina virginica; details: scale 0 to 100
Procedure, shortened: as §1

naked crabgrass = assay type: in vivo, Digitaria nuda; details: scale 0 to 100
Procedure, shortened: as §1

itchgrass = assay type: in vivo, Rottboellia cochinchinensis; details: scale 0 to 100
Procedure, shortened: as §1

quackgrass = assay type: in vivo, Elytrigia repens; details: scale 0 to 100
Procedure, shortened: as §1

## Cc1cc[n+]([O-])c(S(=O)(=O)Cc2c(C(F)(F)F)nn(C)c2OCC(F)(F)F)c1 [Compound 31]
bermudagrass; 16 g ai/ha, preemergence
  Plant response rating, Bermudagrass: 20
bermudagrass; 62 g ai/ha, Preemergence
  Bermudagrass plant response rating: 100
bermudagrass; 125 g ai/ha, preemergence
  Bermudagrass plant response rating: 100
bermudagrass; Preemergence, 31 g ai/ha
  Plant response rating, Bermudagrass: 75
Surinam grass; 16 g ai/ha, preemergence
  Plant response rating, Surinam Grass: 20
Surinam grass; 125 g ai/ha, preemergence
  Surinam Grass plant response rating: 100
Surinam grass; Preemergence, 62 g ai/ha
  Plant response rating, Surinam Grass: 95
Surinam grass; Preemergence, 31 g ai/ha
  Plant response rating, Surinam Grass: 85
Large crabgrass; 16 g ai/ha, preemergence
  Plant response rating, Crabgrass, Large: 30
Large crabgrass; 125 g ai/ha, preemergence
  Crabgrass, Large plant response rating: 100
Large crabgrass; Preemergence, 31 g ai/ha
  Plant response rating, Crabgrass, Large: 95
goosegrass; 16 g ai/ha, preemergence
  Plant response rating, Goosegrass: 50
goosegrass; 62 g ai/ha, Preemergence
  Goosegrass plant response rating: 100
goosegrass; 125 g ai/ha, preemergence
  Goosegrass plant response rating: 100
goosegrass; Preemergence, 31 g ai/ha
  Plant response rating, Goosegrass: 75
johnsongrass; 16 g ai/ha, preemergence
  Plant response rating, Johnsongrass: 40
johnsongrass; 62 g ai/ha, Preemergence
  Johnsongrass plant response rating: 100
johnsongrass; 125 g ai/ha, preemergence
  Johnsongrass plant response rating: 100
johnsongrass; Preemergence, 31 g ai/ha
  Plant response rating, Johnsongrass: 50
kochia; 16 g ai/ha, preemergence
  Plant response rating, Kochia: 0
kochia; 62 g ai/ha, Preemergence
  Kochia plant response rating: 65
kochia; 125 g ai/ha, preemergence
  Kochia plant response rating: 100
kochia; Preemergence, 31 g ai/ha
  Plant response rating, Kochia: 0
Pitted morningglory; 16 g ai/ha, preemergence
  Plant response rating, Morningglory: 0
Pitted morningglory; 62 g ai/ha, Preemergence
  Morningglory plant response rating: 60
Pitted morningglory; 125 g ai/ha, preemergence
  Morningglory plant response rating: 98
Pitted morningglory; Preemergence, 31 g ai/ha
  Plant response rating, Morningglory: 20
Common ragweed; 16 g ai/ha, preemergence
  Plant response rating, Ragweed: 20
Common ragweed; 125 g ai/ha, preemergence
  Ragweed plant response rating: 100
Common ragweed; Preemergence, 62 g ai/ha
  Plant response rating, Ragweed: 90
Common ragweed; Preemergence, 31 g ai/ha
  Plant response rating, Ragweed: 75
mustard; 16 g ai/ha, preemergence
  Plant response rating, Black Mustard: 40
mustard; 62 g ai/ha, Preemergence
  Black Mustard plant response rating: 100
mustard; 125 g ai/ha, preemergence
  Black Mustard plant response rating: 100
mustard; Preemergence, 31 g ai/ha
  Plant response rating, Black Mustard: 95
guineagrass; 16 g ai/ha, preemergence
  Plant response rating, Guineagrass: 80
guineagrass; 62 g ai/ha, Preemergence
  Guineagrass plant response rating: 100
guineagrass; 125 g ai/ha, preemergence
  Guineagrass plant response rating: 100
guineagrass; Preemergence, 31 g ai/ha
  Plant response rating, Guineagrass: 100
dallisgrass; 16 g ai/ha, preemergence
  Plant response rating, Dallisgrass: 35
dallisgrass; 62 g ai/ha, Preemergence
  Dallisgrass plant response rating: 95
dallisgrass; 125 g ai/ha, preemergence
  Dallisgrass plant response rating: 100
dallisgrass; Preemergence, 31 g ai/ha
  Plant response rating, Dallisgrass: 60
barnyardgrass; 16 g ai/ha, preemergence, scale 0 to 100 (0 no effect, 100 complete control)
  Plant response rating, Barnyardgrass: 50
barnyardgrass; 62 g ai/ha, Preemergence, scale 0 to 100
  Barnyardgrass plant response rating: 100
barnyardgrass; 125 g ai/ha, preemergence, scale 0 to 100
  Barnyardgrass plant response rating: 100
barnyardgrass; Preemergence, 31 g ai/ha, scale 0 to 100
  Plant response rating, Barnyardgrass: 95
Prickly sida; 16 g ai/ha, preemergence
  Plant response rating, Prickly Sida: 40
Prickly sida; 62 g ai/ha, Preemergence
  Prickly Sida plant response rating: 80
Prickly sida; 125 g ai/ha, preemergence
  Prickly Sida plant response rating: 100
Prickly sida; Preemergence, 31 g ai/ha
  Plant response rating, Prickly Sida: 75
Italian ryegrass; 16 g ai/ha, preemergence
  Plant response rating, Ryegrass, Italian: 50
Italian ryegrass; 125 g ai/ha, preemergence
  Ryegrass, Italian plant response rating: 90
Italian ryegrass; Preemergence, 62 g ai/ha
  Plant response rating, Ryegrass, Italian: 90
Italian ryegrass; Preemergence, 31 g ai/ha
  Plant response rating, Ryegrass, Italian: 90
Common purslane; 16 g ai/ha, preemergence
  Plant response rating, Purslane: 25
Common purslane; 62 g ai/ha, Preemergence
  Purslane plant response rating: 40
Common purslane; 125 g ai/ha, preemergence
  Purslane plant response rating: 65
Broadleaf signalgrass; 16 g ai/ha, preemergence
  Plant response rating, Signalgrass: 35
Broadleaf signalgrass; 125 g ai/ha, preemergence
  Signalgrass plant response rating: 98
Broadleaf signalgrass; Preemergence, 62 g ai/ha
  Plant response rating, Signalgrass: 90
Broadleaf signalgrass; Preemergence, 31 g ai/ha
  Plant response rating, Signalgrass: 60
Common groundsel
  Groundsel plant response rating: 100
Virginia dayflower; 16 g ai/ha, preemergence
  Plant response rating, Dayflower: 30
Virginia dayflower; 62 g ai/ha, Preemergence
  Dayflower plant response rating: 100
Virginia dayflower; 125 g ai/ha, preemergence
  Dayflower plant response rating: 100
Virginia dayflower; Preemergence, 31 g ai/ha
  Plant response rating, Dayflower: 65
Naked crabgrass; 16 g ai/ha, preemergence
  Plant response rating, Crabgrass, Naked: 75
Naked crabgrass; 62 g ai/ha, Preemergence
  Crabgrass, Naked plant response rating: 100
Naked crabgrass; 125 g ai/ha, preemergence
  Crabgrass, Naked plant response rating: 100
Naked crabgrass; Preemergence, 31 g ai/ha
  Plant response rating, Crabgrass, Naked: 85
itchgrass; 16 g ai/ha, preemergence
  Plant response rating, Itchgrass: 10
itchgrass; 62 g ai/ha, Preemergence
  Itchgrass plant response rating: 60
itchgrass; 125 g ai/ha, preemergence
  Itchgrass plant response rating: 80
itchgrass; Preemergence, 31 g ai/ha
  Plant response rating, Itchgrass: 25
quackgrass; 16 g ai/ha, preemergence
  Plant response rating, Quackgrass: 15
quackgrass; 62 g ai/ha, Preemergence
  Quackgrass plant response rating: 75
quackgrass; 125 g ai/ha, preemergence
  Quackgrass plant response rating: 95
quackgrass; Preemergence, 31 g ai/ha
  Plant response rating, Quackgrass: 65
